*1 amine or outer side, *2 acyl side, *3 side chain or, on linkers, in order; H or OH if unused. Where a SMILES comes first, the peptide text is derived from it. [ ]: non-standard residue; d: D form. Ala(pyrimidin-5-yl) = N[C@@H](Cc1cncnc1)C(=O)O; NMe3Pal(5-F) = CN[C@@H](Cc1cncc(F)c1)C(=O)O; NMePhe(3-Me) = CN[C@@H](Cc1cccc(C)c1)C(=O)O; X42 = O=C([C@H](Cc1cc(F)ncc1F)N[*:1])[*:2]; X11 = CC(C)(F)CC[C@H](N[*:1])C(=O)[*:2]; X13 = O=C([C@H](Cc1ccncc1F)N[*:1])[*:2]; X15 = O=C([C@H](Cc1cnccc1F)N[*:1])[*:2]; Nle(5,5-F2) = CC(F)(F)CC[C@H](N)C(=O)O; X28 = O=C([C@H](Cc1ncccn1)N[*:1])[*:2]; Phe(2-F) = N[C@@H](Cc1ccccc1F)C(=O)O; X1 = O=C(C12CC(CN[*:1])(C1)C2)[*:2]; Ala(cPr) = N[C@@H](CC1CC1)C(=O)O; NMeF = CN[C@@H](Cc1ccccc1)C(=O)O; PhLac = O=C(O)[C@@H](O)Cc1ccccc1; 3Pal = N[C@@H](Cc1cccnc1)C(=O)O; hLeu = CC(C)CC[C@H](N)C(=O)O; NMeA = CN[C@@H](C)C(=O)O
Molecular target: phosphorylation levels of ERK1/2 in AsPC-1 (homozygous KRAS-G12D) cells (Homo sapiens, UniProt P01116, G12D)
Sequence (P01116 1-186 G12D): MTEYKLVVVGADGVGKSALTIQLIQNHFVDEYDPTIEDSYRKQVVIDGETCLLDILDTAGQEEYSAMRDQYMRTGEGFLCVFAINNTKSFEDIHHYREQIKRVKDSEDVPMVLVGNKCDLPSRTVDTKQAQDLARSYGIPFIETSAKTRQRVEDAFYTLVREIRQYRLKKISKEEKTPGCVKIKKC
Experiment: Cellular phospho-ERK assay in AsPC-1 cells (Alpha Screen), assay medium without fetal bovine serum;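 note: signal taken as phospho-ERK over total ERK per well, both detected in one multiplex bead assay, EC50 from four-parameter logistic fit of dose-response curves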
Format: cell-based
Conditions: phospho-ERK AlphaScreen, 18 h
Method: Assay plate was incubated at 37° C. 5% CO2 for the indicated length of time. […] Phosphorylated ERK and total ERK levels were detected by Alpha SureFire Ultra Multiplex pERK kit (PerkinElmer MPSU-PTERK) using 5 μL, acceptor bead mix and 5 μL donor bead mix, both prepared following the manufacturer's protocol. Plates were sealed using aluminum sealing tape (Costar 07-200-683) during incubation at ambient temperature with constant shaking at 300 rpm for 1 h (both acceptor and donor). Assay plates were read on a Envision Xcite Multilabel Reader (PerkinElmer 1040900) at ambient temperature, with emission at 535 nm (Total ERK) and emission at 615 nm (Phospho ERK). Ratio of pERK vs total ERK in each well was used as the final readout. Dose response curves and EC50 were analyzed using a 4-parameter logistic equation in GraphPad Prism software.

Row | SMILES | EC50 [nM]
1 | C[C@H]1C(=O)N[C@@H](Cc2cncnc2)C(=O)N[C@@H](CC2CC2)C(=O)N[C@@H](Cc2ccccc2F)C(=O)N[C@@H](CCC(C)(F)F)C(=O)N(C)[C@@H](Cc2ccccc2)C(=O)NCC23CC(C2)(C3)C(=O)O[C@@H](Cc2ccccc2)C(=O)N1C [compound 276, cyclo(FLac-NMeA-PyrimAla-cPrA-Phe2F-Nle3F2-NMeF-amBCP)] (cyclo([Ala(cPr)][Phe(2-F)][Nle(5,5-F2)][NMeF][X1][PhLac][NMeA][Ala(pyrimidin-5-yl)])) | 666
2 | C[C@H]1C(=O)N[C@@H](Cc2cncnc2)C(=O)N[C@@H](CC2CC2)C(=O)N[C@@H](Cc2ccccc2F)C(=O)N[C@@H](CCC(C)(C)F)C(=O)N(C)[C@@H](Cc2ccccc2)C(=O)NCC23CC(C2)(C3)C(=O)O[C@@H](Cc2ccccc2)C(=O)N1C [compound 277, cyclo(FLac-NMeA-PyrimAla-cPrA-Phe2F-hL3F-NMeF-amBCP)] (cyclo([Ala(cPr)][Phe(2-F)][X11][NMeF][X1][PhLac][NMeA][Ala(pyrimidin-5-yl)])) | 793
3 | Cc1cccc(C[C@H]2C(=O)NCC34CC(C3)(C4)C(=O)O[C@@H](Cc3ccccc3)C(=O)N(C)[C@@H](C)C(=O)N[C@@H](Cc3cncnc3)C(=O)N[C@@H](CC3CC3)C(=O)N[C@@H](Cc3cnccc3F)C(=O)N[C@@H](CCC(C)C)C(=O)N2C)c1 [compound 278, cyclo(FLac-NMeA-PyrimAla-cPrA-3Pal6F-hL-NMePhe3Me-amBCP)] (cyclo([Ala(cPr)][X15][hLeu][NMePhe(3-Me)][X1][PhLac][NMeA][Ala(pyrimidin-5-yl)])) | 4000
4 | Cc1cccc(C[C@H]2C(=O)NCC34CC(C3)(C4)C(=O)O[C@@H](Cc3ccccc3)C(=O)N(C)[C@@H](C)C(=O)N[C@@H](Cc3cncnc3)C(=O)N[C@@H](CC3CC3)C(=O)N[C@@H](Cc3ccncc3F)C(=O)N[C@@H](CCC(C)C)C(=O)N2C)c1 [compound 279, cyclo(FLac-NMeA-PyrimAla-cPrA-4Pal2F-hL-NMePhe3Me-amBCP)] (cyclo([Ala(cPr)][X13][hLeu][NMePhe(3-Me)][X1][PhLac][NMeA][Ala(pyrimidin-5-yl)])) | 4020
5 | CC(C)CC[C@@H]1NC(=O)[C@H](Cc2cc(F)ncc2F)NC(=O)[C@H](CC2CC2)NC(=O)[C@H](Cc2cncnc2)NC(=O)[C@H](C)N(C)C(=O)[C@H](Cc2ccccc2)OC(=O)C23CC(CNC(=O)[C@H](Cc4ccccc4)N(C)C1=O)(C2)C3 [compound 280, cyclo(FLac-NMcA-PyrimAla-cPrA-4Pal25F2-hL-NMeF-amBCP)] (cyclo([Ala(cPr)][X42][hLeu][NMeF][X1][PhLac][NMeA][Ala(pyrimidin-5-yl)])) | 1230
6 | CC(C)CC[C@@H]1NC(=O)[C@H](Cc2ccccc2F)NC(=O)[C@H](CC2CC2)NC(=O)[C@H](Cc2ncccn2)NC(=O)[C@H](C)N(C)C(=O)[C@H](Cc2ccccc2)OC(=O)C23CC(CNC(=O)[C@H](Cc4ccccc4)N(C)C1=O)(C2)C3 [compound 281, cyclo(FLac-NMeA-2PyrimAla-cPrA-Phe2F-hL-NMeF-amBCP)] (cyclo([Ala(cPr)][Phe(2-F)][hLeu][NMeF][X1][PhLac][NMeA][X28])) | 9890
7 | CC(C)CC[C@@H]1NC(=O)[C@H](Cc2ccccc2F)NC(=O)[C@H](CC2CC2)NC(=O)[C@H](Cc2cncnc2)NC(=O)[C@H](C)N(C)C(=O)[C@H](Cc2ccccc2)OC(=O)C23CC(CNC(=O)[C@H](Cc4cncc(F)c4)N(C)C1=O)(C2)C3 [compound 282, cyclo(FLac-NMeA-PyrimAla-cPrA-Phe2F-hL-NMe3Pal5F-amBCP)] (cyclo([Ala(cPr)][Phe(2-F)][hLeu][NMe3Pal(5-F)][X1][PhLac][NMeA][Ala(pyrimidin-5-yl)])) | 2490
8 | CC(C)CC[C@@H]1NC(=O)[C@H](Cc2ccccc2F)NC(=O)[C@H](CC2CC2)NC(=O)[C@H](Cc2cccnc2)NC(=O)[C@H](C)N(C)C(=O)[C@H](Cc2ccccc2)OC(=O)C23CC(CNC(=O)[C@H](Cc4cncc(F)c4)N(C)C1=O)(C2)C3 [compound 283, cyclo(FLac-NMeA-3Pal-cPrA-Phe2F-hL-NMe3Pal5F-amBCP)] (cyclo([3Pal][Ala(cPr)][Phe(2-F)][hLeu][NMe3Pal(5-F)][X1][PhLac][NMeA])) | 1270

— US20260001914A1, “MACROCYCLIC PEPTIDES TARGETING KRAS” (Merck Sharp & Dohme LLC, priority 2022, published 2026)
